Test results: ChEMBL document CHEMBL4184317, “Discovery of Tetrahydroquinoxalines as Bromodomain and Extra-Terminal Domain (BET) Inhibitors with Selectivity for the Second Bromodomain” (J Med Chem, 2018)
≈ marks a conversion by molar mass, not a printed value.

Assays:
[1] = target: Bromodomain-containing protein 4 (Homo sapiens, UniProt O60885, Y390A)
[2] = target: Bromodomain-containing protein 4 (Homo sapiens, UniProt O60885, Y97A)
physchem = conditions: buffer
Description: Chromatographic hydrophobicity index, log D of the compound at pH 7.4 by HPLC method

PBMC = experiment: cells; conditions: Homo sapiens, read-out: pIC50 (converted)
Description: Antiinflammatory activity in human PBMC assessed as inhibition of LPS-induced MCP1 release preincubated for 30 mins followed by LPS challenge measured after 24 hrs by immunoassay

[3] = target: T1, Bromodomain-containing protein 2 (Homo sapiens, UniProt P25440); experiment: Inhibition of human BRD2 BD1 after 30 mins by TR-FRET assay
[4] = target: T1, Bromodomain-containing protein 2; experiment: Inhibition of human BRD2 BD2 after 30 mins by TR-FRET assay
[5] = target: T2, Bromodomain-containing protein 3 (Homo sapiens, UniProt Q15059); experiment: Inhibition of BRD3 BD1 (unknown origin) after 30 mins by TR-FRET assay
[6] = target: T2, Bromodomain-containing protein 3; experiment: Inhibition of BRD3 BD2 (unknown origin) after 30 mins by TR-FRET assay
[7] = target: T3, Bromodomain testis-specific protein (Homo sapiens, UniProt Q58F21); experiment: Inhibition of BRDT BD1 (unknown origin) after 30 mins by TR-FRET assay
[8] = target: T3, Bromodomain testis-specific protein; experiment: Inhibition of BRDT BD2 (unknown origin) after 30 mins by TR-FRET assay
Peregrin = target: T4, Peregrin (Homo sapiens, UniProt P55201); experiment: Displacement of Alexa 647 ligand from 6H-Flag-Tev-BRPF1 (622 to 738 residues) (unknown origin) expressed in Escherichia coli BL21 (DE3) cells after 30 mins by TR-FRET assay
T4 sequence (P55201 whole entry): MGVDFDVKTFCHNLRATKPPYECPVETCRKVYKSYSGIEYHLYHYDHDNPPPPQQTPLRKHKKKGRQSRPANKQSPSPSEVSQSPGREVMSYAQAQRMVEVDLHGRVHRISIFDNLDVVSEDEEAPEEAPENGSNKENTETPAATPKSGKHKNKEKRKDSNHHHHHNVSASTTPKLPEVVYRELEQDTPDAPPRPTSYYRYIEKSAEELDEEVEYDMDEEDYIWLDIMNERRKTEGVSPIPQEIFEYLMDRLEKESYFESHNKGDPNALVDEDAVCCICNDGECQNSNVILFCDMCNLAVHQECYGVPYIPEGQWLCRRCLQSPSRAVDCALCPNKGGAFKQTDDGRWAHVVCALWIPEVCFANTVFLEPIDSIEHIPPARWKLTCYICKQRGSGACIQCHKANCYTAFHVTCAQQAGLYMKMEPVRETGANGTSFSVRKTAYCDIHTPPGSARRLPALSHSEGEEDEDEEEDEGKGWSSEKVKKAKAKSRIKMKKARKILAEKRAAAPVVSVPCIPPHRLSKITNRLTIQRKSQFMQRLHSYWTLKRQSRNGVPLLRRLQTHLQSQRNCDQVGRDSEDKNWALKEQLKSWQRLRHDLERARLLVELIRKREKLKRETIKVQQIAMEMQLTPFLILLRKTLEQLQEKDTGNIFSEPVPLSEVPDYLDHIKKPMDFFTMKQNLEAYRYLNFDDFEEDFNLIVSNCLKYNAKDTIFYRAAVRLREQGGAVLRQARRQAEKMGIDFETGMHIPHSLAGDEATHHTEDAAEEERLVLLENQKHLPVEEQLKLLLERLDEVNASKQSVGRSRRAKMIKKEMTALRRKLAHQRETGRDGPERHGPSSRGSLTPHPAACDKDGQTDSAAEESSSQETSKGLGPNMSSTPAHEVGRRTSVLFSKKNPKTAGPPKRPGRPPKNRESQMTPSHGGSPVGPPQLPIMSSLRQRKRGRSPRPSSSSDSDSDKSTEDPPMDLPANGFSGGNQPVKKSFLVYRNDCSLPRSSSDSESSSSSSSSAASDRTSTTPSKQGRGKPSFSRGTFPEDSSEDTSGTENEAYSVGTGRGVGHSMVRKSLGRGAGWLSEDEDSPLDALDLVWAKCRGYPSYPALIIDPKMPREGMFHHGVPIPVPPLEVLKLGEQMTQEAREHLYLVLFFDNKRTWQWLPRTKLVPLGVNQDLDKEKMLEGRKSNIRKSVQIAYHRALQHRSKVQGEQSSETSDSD

[9] = Permeability of the compound by PAMPA; assay type: ADME; conditions: read-out: permeability
[10] = Solubility of the compound in pH 7.4 phosphate buffered saline by chemiluminescent nitrogen detection method; assay type: physicochemical
[11] = Solubility of the compound in FaSSIF at pH 6.5 after 16 hrs by HPLC method; assay type: physicochemical
Blood = experiment: Antiinflammatory activity in human whole blood assessed as inhibition of LPS-induced MCP1 release preincubated for 30 mins followed by LPS challenge measured after 24 hrs by immunoassay; assay type: functional, tissue-based
Homo sapiens [12] = species: Homo sapiens; experiment: Selectivity ratio of IC50 for human BRD2 BD1 to IC50 for human BRD2 BD2
Homo sapiens [13] = species: Homo sapiens; experiment: Selectivity ratio of IC50 for BRD3 BD1 (unknown origin) to IC50 for BRD3 BD2 (unknown origin)
Homo sapiens [14] = species: Homo sapiens; experiment: Selectivity ratio of IC50 for BRDT BD1 (unknown origin) to IC50 for BRDT BD2 (unknown origin)

T1 sequence (P25440 whole entry): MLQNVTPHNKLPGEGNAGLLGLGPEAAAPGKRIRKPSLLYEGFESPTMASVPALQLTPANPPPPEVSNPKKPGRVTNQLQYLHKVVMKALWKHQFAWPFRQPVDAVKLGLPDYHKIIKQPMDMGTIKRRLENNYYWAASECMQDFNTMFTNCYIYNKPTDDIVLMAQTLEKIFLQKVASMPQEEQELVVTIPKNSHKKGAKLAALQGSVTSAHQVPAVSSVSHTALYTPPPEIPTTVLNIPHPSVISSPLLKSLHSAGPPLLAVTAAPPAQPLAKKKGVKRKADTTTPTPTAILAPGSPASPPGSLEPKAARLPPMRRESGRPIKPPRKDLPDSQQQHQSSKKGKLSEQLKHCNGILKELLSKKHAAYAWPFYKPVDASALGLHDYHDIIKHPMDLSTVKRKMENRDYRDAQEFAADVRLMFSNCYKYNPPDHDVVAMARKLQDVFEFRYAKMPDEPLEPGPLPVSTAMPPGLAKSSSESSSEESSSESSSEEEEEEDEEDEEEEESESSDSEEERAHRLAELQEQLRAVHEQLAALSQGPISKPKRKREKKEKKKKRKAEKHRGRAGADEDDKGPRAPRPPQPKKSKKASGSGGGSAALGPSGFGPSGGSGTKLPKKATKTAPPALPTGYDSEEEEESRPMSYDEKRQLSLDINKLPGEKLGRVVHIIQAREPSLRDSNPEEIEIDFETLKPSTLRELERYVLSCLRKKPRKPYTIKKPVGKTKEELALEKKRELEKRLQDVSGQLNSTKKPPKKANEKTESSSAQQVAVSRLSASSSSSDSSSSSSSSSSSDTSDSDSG
T2 sequence (Q15059 whole entry): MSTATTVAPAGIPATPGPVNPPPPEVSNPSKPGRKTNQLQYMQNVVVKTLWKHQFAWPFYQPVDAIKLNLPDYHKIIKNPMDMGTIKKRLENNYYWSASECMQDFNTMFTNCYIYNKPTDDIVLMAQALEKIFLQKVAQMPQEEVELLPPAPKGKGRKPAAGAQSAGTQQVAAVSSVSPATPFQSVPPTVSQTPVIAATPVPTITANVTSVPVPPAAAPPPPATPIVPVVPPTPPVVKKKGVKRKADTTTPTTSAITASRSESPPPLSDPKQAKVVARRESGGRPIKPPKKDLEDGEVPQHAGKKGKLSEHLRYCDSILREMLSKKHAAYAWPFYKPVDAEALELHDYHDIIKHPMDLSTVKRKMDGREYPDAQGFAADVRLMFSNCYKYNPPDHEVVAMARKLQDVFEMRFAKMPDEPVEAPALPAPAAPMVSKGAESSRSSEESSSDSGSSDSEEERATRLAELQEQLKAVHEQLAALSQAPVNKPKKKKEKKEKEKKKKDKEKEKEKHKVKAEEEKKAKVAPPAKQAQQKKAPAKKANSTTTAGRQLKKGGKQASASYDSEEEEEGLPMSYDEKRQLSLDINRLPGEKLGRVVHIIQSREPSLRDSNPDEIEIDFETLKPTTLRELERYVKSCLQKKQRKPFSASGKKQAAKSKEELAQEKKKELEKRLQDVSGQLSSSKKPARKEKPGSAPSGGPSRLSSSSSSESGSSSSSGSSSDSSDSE

| SMILES | IC50 [1] [nM] | IC50 [2] [nM] | chromatographic logD (physchem; pH 7.4, logD) | further results |
| --- | --- | --- | --- | --- |
| CC(=O)N1c2ccccc2N(Cc2ccccc2CO)CC1C1CC1 (racemic) | 31600 | 501 | 4.9 | – |
| CCC1CN(Cc2ccccc2)c2cc(-c3ccc(C(N)=O)nc3)ccc2N1C(C)=O (centres undefined) | 631 | 63.1 | 4.5 | – |
| CCOC(=O)c1ccccc1CN1CC(C2CC2)N(C(C)=O)c2ccccc21 (centres undefined) | 12600 | 1000 | 7.2 | – |
| CC(=O)N1c2ccccc2N(Cc2ccccc2C#N)CC1C1CC1 (centres undefined) | 25100 | 2510 | 6 | – |
| COc1cc(OC)c2c(=O)[nH]c(-c3cc(C)c(OCCO)c(C)c3)nc2c1 [APABETALONE] | – | – | 2.9 | – |
| CC(=O)N1c2ccccc2N(Cc2ccccc2CC(=O)O)CC1C1CC1 (centres undefined) | > 50100 | 1000 | 2.4 | IC50 (PBMC): 1260 nM |
| CCC1CN(Cc2ccccc2)c2cc(-c3cncnc3)ccc2N1C(C)=O (centres undefined) | 3160 | 158 | 4.9 | – |
| CCC1CN(Cc2ccccc2)c2cc(-c3cnoc3)ccc2N1C(C)=O (centres undefined) | 1580 | 126 | 5.9 | – |
| CC(=O)N1c2ccccc2N(Cc2cccc(C)c2)CC1C (centres undefined) | 20000 | 1000 | 6.5 | – |
| CCC1CN(Cc2ccccc2)c2cc(-c3ccncc3OC)ccc2N1C(C)=O (centres undefined) | 5010 | 501 | 5.4 | – |
| CC(=O)N1c2ccccc2N(Cc2ccccc2C(=O)O)CC1C1CC1 (centres undefined) | > 50100 | 794 | 2.2 | IC50 (PBMC): 2510 nM |
| CC(=O)N1c2ccccc2N(Cc2ccccc2CO)CC1C1CC1 (single isomer, unassigned; enantiomer 2) | > 50100 | > 50100 | – | – |
| CC(=O)N1c2ccccc2N(Cc2cccc(C)c2)CC1C1CC1 (centres undefined) | 25100 | 794 | 7.2 | – |
| CCC1CN(Cc2ccccc2)c2cc(Br)ccc2N1C(C)=O (centres undefined) | 2510 | 316 | 7.4 | – |
| CCC1CN(Cc2cccc(C)c2)c2ccccc2N1C(C)=O (centres undefined) | 12600 | 794 | 7.1 | – |
| CC(=O)N1c2ccccc2N(Cc2ccccc2C(N)=O)CC1C1CC1 (centres undefined) | > 50100 | 1260 | 3.9 | – |
| CC(=O)N1c2ccccc2N(Cc2ccccc2O)CC1C1CC1 (centres undefined) | 20000 | 501 | 5.2 | IC50 (PBMC): 1260 nM |
| CC(=O)N1c2ccccc2N(Cc2ccccc2CN)CC1C1CC1 (centres undefined) | 20000 | 631 | 2.7 | – |
| CCC1CN(Cc2ccccc2)c2cc(-c3cn[nH]c3)ccc2N1C(C)=O (centres undefined) | 398 | 50.1 | 4.2 | – |
| CC(=O)N1CCN(Cc2ccccc2)c2ccccc21 | 10000 | 2510 | 5.6 | – |
| CC(=O)N1c2ccccc2N(Cc2ccccc2OCCO)CC1C1CC1 (centres undefined) | 25100 | 316 | 4.9 | – |
| CC(=O)N1c2ccccc2N(Cc2ccccc2C(=O)O)CC1C (centres undefined) | 39800 | 1580 | 1.5 | – |
| COc1ccccc1CN1CC(C2CC2)N(C(C)=O)c2ccccc21 (centres undefined) | 15800 | 398 | 6.9 | IC50 (PBMC): 2000 nM |

| SMILES | IC50 [1] [nM] | IC50 [2] [nM] | chromatographic logD (physchem; pH 7.4, logD) | further results |
| --- | --- | --- | --- | --- |
| CC(=O)N1CC(C)N(Cc2ccccc2)c2ccccc21 (centres undefined) | 31600 | 1260 | – | – |
| CCC1CN(Cc2ccccc2)c2cc(-c3ccc(C(N)=O)cc3)ccc2N1C(C)=O (centres undefined) | 398 | 50.1 | 4.4 | – |
| CC(=O)N1c2ccc(-c3ccc(C(=O)O)cc3)cc2[C@H](Nc2ccc(Cl)cc2)C[C@@H]1C | – | – | 3.9 | – |
| CCC1CN(Cc2ccccc2)c2cc(-c3cnc(C(N)=O)nc3)ccc2N1C(C)=O (centres undefined) | 2000 | 100 | 3.6 | – |
| CC(=O)N1c2ccccc2N(Cc2ccccc2N(C)C)CC1C1CC1 (centres undefined) | 20000 | 501 | 7.5 | IC50 (PBMC): 1580 nM |
| CCC1CN(Cc2ccccc2)c2cc(-c3cnc(C#N)nc3)ccc2N1C(C)=O (centres undefined) | 251 | 100 | 6.3 | – |
| CC(=O)N1c2ccccc2N(Cc2cccc(O)c2)CC1C1CC1 (centres undefined) | 15800 | 631 | 4.9 | – |
| CC(=O)N1c2ccccc2N(Cc2cc(C)ccc2C(=O)O)CC1C1CC1 (centres undefined) | > 50100 | 2510 | 2.4 | – |
| CC(=O)N1c2ccccc2N(Cc2ccc(Cl)cc2C(=O)O)CC1C1CC1 (centres undefined) | 39800 | 1260 | 2.9 | IC50 (PBMC): 12600 nM |
| CCC1CN(Cc2ccccc2)c2cc(C3=CCNCC3)ccc2N1C(C)=O (centres undefined) | 3160 | 158 | – | chromatographic logD (physchem; pH 7.4): 2.8 |
| CCC1CN(Cc2ccccc2)c2cc(-c3cccnc3)ccc2N1C(C)=O (centres undefined) | 1580 | 100 | 5.6 | – |
| CC(=O)N1c2ccc(-c3cnc(C(N)=O)nc3)cc2N(Cc2ccccc2CO)C[C@@H]1C1CC1 | 2000 | 50.1 | 3 | IC50 [3]: 1580 nM; IC50 [4]: 100 nM; IC50 [5]: 794 nM; IC50 [6]: 31.6 nM; IC50 [7]: 501 nM; IC50 [8]: 100 nM; IC50 (Peregrin): > 100000 nM; Papp [9]: 13.5 ×10⁻⁶ cm/s; solubility [10]: 87 µM (≈ 39.8 µg/mL); solubility at 16 h [11]: 18 µg/mL (≈ 39.3 µM); IC50 (Blood): 398 nM; Ratio IC50 (Homo sapiens [12]): 16; Ratio IC50 (Homo sapiens [13]): 25; Ratio IC50 (Homo sapiens [14]): 5; IC50 (PBMC): 63.1 nM |
| CC(=O)N1CCN(Cc2cccc(C)c2)c2ccccc21 | 15800 | 501 | 5.9 | IC50 (PBMC): 3160 nM |
| CCC1CN(Cc2ccccc2)c2cc(C3=CCOCC3)ccc2N1C(C)=O (centres undefined) | 1580 | 158 | 6.5 | – |
| CC(=O)N1c2ccccc2N(Cc2ccccc2)CC1C1CC1 (centres undefined) | 20000 | 631 | 6.7 | IC50 (PBMC): 3160 nM |
| CC(=O)N1c2ccccc2N(Cc2ccccc2)CC1C (centres undefined) | 15800 | 501 | 5.9 | IC50 (PBMC): 1260 nM |
| CCC1CN(Cc2ccccc2)c2cc(-c3cccc(C(N)=O)c3)ccc2N1C(C)=O (centres undefined) | 501 | 63.1 | 4.7 | – |
| CC(=O)N1CCN(Cc2ccccc2C(=O)O)c2ccccc21 | > 50100 | 5010 | 1.2 | – |
| CC(=O)N1c2ccccc2N(Cc2cccc(CO)c2)CC1C1CC1 (centres undefined) | 25100 | 794 | 4.7 | IC50 (PBMC): 631 nM |
| CCC1CN(Cc2ccccc2)c2cc(-c3ccc(=O)[nH]c3)ccc2N1C(C)=O (centres undefined) | 794 | 79.4 | 3.5 | – |
| CCC1CN(Cc2ccccc2)c2cc(-c3cnc(C)cn3)ccc2N1C(C)=O (centres undefined) | 2000 | 126 | 6.1 | – |
| CCC1CN(Cc2ccccc2)c2ccccc2N1C(C)=O (centres undefined) | 10000 | 631 | 6.5 | – |
